According to patent US20090202987A1, “Canis sphingosine 1-phosphate receptor isoform 2” (priority 2004, published 2009):

Key:
[1] = biological target: T1, cS1P2 receptor (Canis lupus familiaris, UniProt A0A8I3P3I1); assay: 35S-GTPγS binding assay with membranes from transfected CHO cells; type: biochemical, Canis (dog); settings: membranes of cS1P2-transfected CHO cells, 5 μM GDP, 100 pM 35S-GTPγS, one hour at room temperature; read-out: EC50 (35S-GTPγS binding, FIG. 4)
Description: Functional coupling of the cS1P2 receptor to G proteins was measured in a ^35S-GTPγS binding assay. Membranes were prepared from transfected cells by homogenization in ice cold 20 mM HEPES pH 7.4, 10 mM EDTA using a Kinematica polytron (setting 5, for 10 seconds). Homogenates were centrifuged at 48,000×g for 15 minutes at 4° C. and the pellet suspended in 20 mM HEPES pH 7.4, 0.11 mM EDTA. Following a second centrifugation, the final pellet was suspended in 20 mM HEPES pH 7.4, 100 mM NaCl, 10 mM MgCl2. Membranes were incubated in 200 μL with 5 μM GDP, various concentrations of SIP (sonicated in 1% BSA), and 100 pM ^35S-GTPγS (NEN; specific activity 1250 Ci/mmol) in 96 well microtiter dishes. Binding was performed for one hour at room temperature, and terminated by harvesting the membranes onto GF/B filter plates with a Packard Filtermate Universal Harvester. After drying the filter plates for 30 min, 40 μL of MICROSCINT 20 was added to each well and binding was measured on a Packard Top Count scintillation counter.

[2] = biological target: T1, cS1P2 receptor; assay: S1P ligand binding assay with transfected CHO cells expressing the cS1P2 receptor; parameters: species or system Canis (dog); settings: 33P-S1P binding to CHO cells expressing cS1P2, 60 minutes at room temperature; read-out: EC50 (S1P ligand binding, FIG. 3)
Description: The transfected CHO cells from Example 2 expressing the cS1P2 receptor were evaluated for the ability of the cS1P2 receptor expressed in the cells to properly integrate into the cell membrane and bind SIP.
Transfected CHO cells from Example 2 were harvested with enzyme-free dissociation solution (Specialty Media, Lavallette, N.J.). The cells were washed once in cold PBS and suspended in SIP binding buffer (50 mM HEPES-Na, pH 7.5, 5 mM MgCl2, 1 mM CaCl2, 0.5% FAF-BSA). ^33P-S1P was synthesized enzymatically from γ^33P-ATP and sphingosine using a crude extract with sphingosine kinase activity in a reaction mix containing 50 mM KH2PO4, 1 mM mercaptoethanol, 1 mM Na3VO4, 25 mM KF, 2 mM semicarbazide, 1 mM Na2EDTA, 5 mM MgCl2, […], 0.1% TritonX-114, and 1 mCi γ^33P-ATP (NEN; specific activity 2000 Ci/mnol). Reaction products were extracted with butanol and ^33P-S1p was purified by HPLC.
^33P-S1P (0.1 uCi/ml) was sonicated with 0.2 nM S1P dissolved in binding buffer; 100 μL of the mixture was added to 100 μL cells (1×10^5). Binding was performed for 60 minutes at room temperature. […] After drying the filter plates for 30 minutes, 50 μL of MICROSCINT 20 was added to each well and binding was measured with a Packard Top Count. Non-specific binding was defined as the amount of radioactivity remaining in the presence of 200 nM cold S1P.

EC50 [1]: ~0.8 nM | EC50 [2]: ~5.7 nM
SMILES: CCCCCCCCCCCCC/C=C/[C@@H](O)[C@@H](N)COP(=O)(O)O [S1P, sphingosine-1-phosphate]
